Source: patent US9399648B2, “Isothiazolopyridinones useful for the treatment of (inter alia) cystic fibrosis” (Vertex Pharmaceuticals Incorporated, priority 2007, dated 2016)

Target: T1, ΔF508-CFTR (Homo sapiens, UniProt P13569, DEL508-508)
T1 construct: expressed in transfected cells; host or cells: Fisher rat […] (FRT) cells expressing ΔF508-CFTR (Ussing chamber); NIH3T3 cells stably expressing ΔF508-CFTR (whole-cell recording)
Test: Assays for detecting and measuring ΔF508-CFTR potentiation properties of compounds (membrane potential optical / Ussing chamber / whole-cell recording)
Format: cell-based
Settings: for Emax: relative efficacy, efficacy of putative ΔF508-CFTR potentiators compared to known potentiator genistein; for EC50: ΔF508-CFTR potentiation, the specific assay format behind Table 3 is not stated
Source text: Assays for Detecting and Measuring ΔF508-CFTR Potentiation Properties of Compounds
Membrane Potential Optical Methods for Assaying ΔF508-CFTR Modulation Properties of Compounds
The optical membrane potential assay utilized voltage-sensitive FRET sensors described by Gonzalez and Tsien (See Gonzalez, J. E. and R. Y. Tsien (1995) “Voltage sensing by fluorescence resonance energy transfer in single cells” Biophys J 69(4): 1272-80, and Gonzalez, J. E. and R. Y. Tsien (1997) “Improved indicators of cell membrane potential that use fluorescence resonance energy transfer” Chem Biol 4(4): 269-77) in combination with instrumentation for measuring fluorescence changes such as the Voltage/Ion Probe Reader (VIPR) (See Gonzalez, J. E., K. Oades, et al. (1999) “Cell-based assays and instrumentation for screening ion-channel targets” Drug Discov Today 4(9): 431-439).
These voltage sensitive assays are based on the change in fluorescence resonant energy transfer (FRET) between the membrane-soluble, voltage-sensitive dye, DiSBAC2(3), and a fluorescent phospholipid, CC2-DMPE, which is attached to the outer leaflet of the plasma membrane and acts as a FRET donor. Changes in membrane potential (Vm) cause the negatively charged DiSBAC2(3) to redistribute across the plasma membrane and the amount of energy transfer from CC2-DMPE changes accordingly. The changes in fluorescence emission were monitored using VIPR™ II, which is an integrated liquid handler and fluorescent detector designed to conduct cell-based screens in 96- or 384-well microtiter plates.
Identification of Potentiator Compounds
Typical protocol utilized a basolateral to apical membrane Cl^− concentration gradient. To set up this gradient, normal ringers was used on the basolateral membrane and was permeabilized with nystatin (360 μg/m), whereas apical NaCl was replaced by equimolar sodium gluconate (titrated to pH 7.4 with NaOH) to give a large Cl^− concentration gradient across the epithelium. All experiments were performed 30 min after nystatin permeabilization. Forskolin (10 μM) and all test compounds were added to both sides of the cell culture inserts. The efficacy of the putative ΔF508-CFTR potentiators was compared to that of the known potentiator, genistein.
Solutions • Basolateral solution (in mM): NaCl (135), CaCl2 (1.2), MgCl2 (1.2), K2HPO4 (2.4), KHPO4 (0.6), N-2-hydroxyethylpiperazine-N′-2-ethanesulfonic acid (HEPES) (10), and dextrose (10). The solution was titrated to pH 7.4 with NaOH. • Apical solution (in mM): Same as basolateral solution with NaCl replaced with Na Gluconate (135).
Fisher rat […] (FRT) cells expressing ΔF508-CFTR (FRTΔ^F508-CFTR) were used for Ussing chamber experiments for the putative ΔF508-CFTR modulators identified from our optical assays. The cells were cultured on Costar Snapwell cell culture inserts and cultured for five days at 37° C. and 5% CO2 in Coon's modified Ham's F-12 medium supplemented with 5% fetal calf serum, 100 U/ml penicillin, and 100 μg/m streptomycin. Prior to use for characterizing the potentiator activity of compounds, the cells were incubated at 27° C. for 16-48 hrs to correct for the ΔF508-CFTR. To determine the activity of corrections compounds, the cells were incubated at 27° C. or 37° C. with and without the compounds for 24 hours.
The macroscopic ΔF508-CFTR current (IΔF508) in temperature- and test compound-corrected NIH3T3 cells stably expressing ΔF508-CFTR were monitored using the perforated-patch, whole-cell recording. Briefly, voltage-clamp recordings of IΔF508 were performed at room temperature using an Axopatch 200B patch-clamp amplifier (Axon Instruments Inc., Foster City, Calif.). All recordings were acquired at a sampling frequency of 10 kHz and low-pass filtered at 1 kHz. […] Under these recording conditions, the calculated reversal potential for Cl^− (ECl) at room temperature was −28 mV. […]

T1 sequence (P13569 with tags, fused parts or gaps DEL508-508): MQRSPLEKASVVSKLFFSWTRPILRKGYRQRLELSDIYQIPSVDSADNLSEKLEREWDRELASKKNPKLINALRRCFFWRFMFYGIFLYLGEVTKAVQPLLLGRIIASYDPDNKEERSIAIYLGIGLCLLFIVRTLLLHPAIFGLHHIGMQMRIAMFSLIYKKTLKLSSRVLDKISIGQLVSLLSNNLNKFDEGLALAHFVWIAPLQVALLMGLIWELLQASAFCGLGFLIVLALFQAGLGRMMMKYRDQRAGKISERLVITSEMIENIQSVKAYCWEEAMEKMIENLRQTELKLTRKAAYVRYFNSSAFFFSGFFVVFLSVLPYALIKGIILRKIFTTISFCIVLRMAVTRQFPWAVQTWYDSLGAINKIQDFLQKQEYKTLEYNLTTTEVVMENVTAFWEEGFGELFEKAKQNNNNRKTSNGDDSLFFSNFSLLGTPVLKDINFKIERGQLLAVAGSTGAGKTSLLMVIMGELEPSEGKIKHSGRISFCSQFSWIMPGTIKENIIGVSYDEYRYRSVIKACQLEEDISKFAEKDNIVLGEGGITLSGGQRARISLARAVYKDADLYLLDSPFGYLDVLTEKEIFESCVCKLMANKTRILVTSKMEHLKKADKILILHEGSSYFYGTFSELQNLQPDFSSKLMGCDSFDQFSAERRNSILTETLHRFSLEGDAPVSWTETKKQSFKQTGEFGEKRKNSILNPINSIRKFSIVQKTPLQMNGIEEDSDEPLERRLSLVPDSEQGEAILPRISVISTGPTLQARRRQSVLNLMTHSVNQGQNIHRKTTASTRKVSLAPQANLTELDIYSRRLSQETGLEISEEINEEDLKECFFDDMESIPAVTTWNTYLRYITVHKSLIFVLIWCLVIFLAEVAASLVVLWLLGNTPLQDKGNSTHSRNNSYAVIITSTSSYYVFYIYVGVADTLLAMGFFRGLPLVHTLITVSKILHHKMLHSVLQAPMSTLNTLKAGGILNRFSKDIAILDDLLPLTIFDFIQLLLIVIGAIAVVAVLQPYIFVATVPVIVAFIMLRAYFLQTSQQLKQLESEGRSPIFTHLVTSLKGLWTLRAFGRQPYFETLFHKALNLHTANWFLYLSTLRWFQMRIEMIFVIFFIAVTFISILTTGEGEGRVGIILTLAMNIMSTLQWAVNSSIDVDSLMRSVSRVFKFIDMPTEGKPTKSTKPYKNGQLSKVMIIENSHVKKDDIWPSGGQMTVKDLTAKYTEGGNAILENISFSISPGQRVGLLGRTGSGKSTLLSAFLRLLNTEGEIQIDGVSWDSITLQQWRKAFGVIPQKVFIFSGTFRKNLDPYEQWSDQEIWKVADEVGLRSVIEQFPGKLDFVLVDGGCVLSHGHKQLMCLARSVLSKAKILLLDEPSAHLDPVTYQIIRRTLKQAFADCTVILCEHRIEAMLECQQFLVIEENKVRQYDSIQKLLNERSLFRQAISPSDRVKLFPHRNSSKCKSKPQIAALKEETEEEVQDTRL

Compound	Emax [%]	EC50 [µM]
Cc1nsc2[nH]cc(C(=O)Nc3ccc4c(C(F)(F)F)c[nH]c4c3)c(=O)c12 [Compound 1]	25 to 100	< 10
Cc1nsc2[nH]cc(C(=O)Nc3ccc4c(C(C)(C)C)c[nH]c4c3)c(=O)c12 [Compound 2, N-(3-tert-butyl-1H-indol-6-yl)-3-methyl-4-oxo-4,7-dihydroisothiazolo[5,4-b]-pyridine-5-carboxamide]	25 to 100	< 10
Cc1nsc2[nH]cc(C(=O)Nc3cc(O)c(C(C)(C)C)cc3C(C)(C)C)c(=O)c12 [Compound 3]	25 to 100	< 10
Cc1nsc2[nH]cc(C(=O)Nc3ccc(N4CCC[C@@H]4C)cc3C(F)(F)F)c(=O)c12 [Compound 4]	25 to 100	< 10
Cc1nsc2[nH]cc(C(=O)Nc3cc(O)c(C4(C)CCCCC4)cc3F)c(=O)c12 [Compound 5]	25 to 100	< 10
Cc1nsc2[nH]cc(C(=O)Nc3ccc(C(F)(F)F)c(O)c3)c(=O)c12 [Compound 6]	25 to 100	< 10
Cc1nsc2[nH]cc(C(=O)Nc3ccc(N4CCC(F)(F)C4)cc3C(F)(F)F)c(=O)c12 [Compound 7]	25 to 100	< 10
Cc1nsc2[nH]cc(C(=O)Nc3ccc(N4CCC(C)(C)C4)cc3C(F)(F)F)c(=O)c12 [Compound 8]	25 to 100	< 10
Cc1nsc2[nH]cc(C(=O)Nc3cc4[nH]ccc4cc3C(F)(F)F)c(=O)c12 [Compound 9]	25 to 100	< 10
Cc1nsc2[nH]cc(C(=O)Nc3ccc(N4CC[C@H](F)C4)cc3C(F)(F)F)c(=O)c12 [Compound 10]	25 to 100	< 10
Cc1nsc2[nH]cc(C(=O)Nc3ccc(N4[C@H](C)CC[C@H]4C)cc3C(F)(F)F)c(=O)c12 [Compound 11]	25 to 100	< 10
Cc1nsc2[nH]cc(C(=O)Nc3cc(O)c(C4CCCC4)cc3C(F)(F)F)c(=O)c12 [Compound 12]	25 to 100	< 10
Cc1nsc2[nH]cc(C(=O)Nc3ccc(N4CC[C@@H](F)C4)cc3C(F)(F)F)c(=O)c12 [Compound 13]	25 to 100	< 10
Cc1nsc2[nH]cc(C(=O)Nc3cc4[nH]ccc4cc3C(C)(C)C)c(=O)c12 [Compound 14]	25 to 100	< 10
Cc1nsc2[nH]cc(C(=O)Nc3cc(O)c(C4CCCC4)cc3C#N)c(=O)c12 [Compound 15]	25 to 100	< 10
Cc1cc(C2CCCC2)c(O)cc1NC(=O)c1c[nH]c2snc(C)c2c1=O [Compound 16]	25 to 100	< 10
